Reference: patent US20090022664A1, “Radiolabelling via fluorination of aziridines” (priority 2007, published 2009)

Columns and labels:
[1] = Plasma stability of the β-fluoro amines; assay type: in vitro ADME; conditions: in solution with Human Plasma; aliquots incubated for different time periods
Procedure: 675 μl EtOH were added to the reactive-vial and then 5 aliquots of 70 μl of the Plasma solution were incubated for different time periods.

[2] = Hydrolytic stability of the β-fluoro amines; assay type: physicochemical; conditions: under neutral and basic conditions (FIG. 2)
Description: The β-fluoro amino acid derivative 11ab-18F is quite stable under neutral and basic conditions (FIG. 2).

Plasma stability [1]	Hydrolytic stability [2]	Compound
stable	–	CC(C)c1cc(C(C)C)c(S(=O)(=O)NC2CN(C(=O)CCC(=O)NCc3ccccc3)CC2[18F])c(C(C)C)c1 (stereo not drawn) [35aa-18F, N-Benzyl-4-[3-[^18F]fluoro-4-(2,4,6-triisopropyl-benzene-sulfonylamino)-pyrrolidin-1-yl]-4-oxo-butyramide]
–	quite stable	CC(C)c1cc(C(C)C)c(S(=O)(=O)NC(C[18F])C(=O)NCc2ccccc2)c(C(C)C)c1 (stereo not drawn) [11ab-18F, 3-[^18F]Fluoro-N-benzyl-2-(2,4,6-triisopropylphenylsulphon-amido)-propanamide]
stable	–	COc1ccc(S(=O)(=O)NC(C[18F])C(=O)NCc2ccccc2)cc1OC (stereo not drawn) [11ac-18F, 3-[^18F]Fluoro-N-benzyl-2-(3,4-dimethoxyphenylsulphon-amido)-propanamide]
